These results are taken from ChEMBL document CHEMBL4261580, “Novel antitumor compound optimized from natural saponin Albiziabioside A induced caspase-dependent apoptosis and ferroptosis as a p53 activator through the mitochondrial pathway” (Eur J Med Chem, 2018).

What all share (type): functional, cell-based
For one assay, the system named is HCT-116. Put plainly: Antiproliferative activity against human HCT116 cells after 72 hrs by MTT assay. The settings on record: HCT-116, 72 h.
The next assay has as its system MCF7. Put plainly: Antiproliferative activity against human MCF7 cells after 72 hrs by MTT assay. The settings on record: MCF7, 72 h. (Tetrazolium assays rely on reduction of a dye to a coloured formazan, in cell work by metabolically active cells.)
In a further assay the test system is HepG2. Put plainly: Antiproliferative activity against human HepG2 cells after 72 hrs by MTT assay. The conditions noted are these: HepG2, 72 h.
In another assay the test system is A549. Put plainly: Antiproliferative activity against human A549 cells after 72 hrs by MTT assay. The settings on record: A549, 72 h.
The subject of another assay is MGC-803. Put plainly: Antiproliferative activity against human MGC803 cells after 72 hrs by MTT assay. The conditions noted are these: MGC-803, 72 h.

As a reminder, the IC50 is the concentration needed to halve the response being measured. A low value points to inhibition by little substance.

Molecules are shown by their SMILES.

Take `CC(=O)N[C@H]1[C@H](O[C@H]2CC[C@]3(C)[C@H]4CC=C5[C@@H]6CC(C)(C)CC[C@]6(C(=O)OCc6cn(-c7ccc(C(F)(F)F)cc7)nn6)CC[C@@]5(C)[C@]4(C)CC[C@H]3C2(C)C)O[C@H](CO[C@@H]2OC[C@H](O)[C@H](O)[C@@H]2O)[C@@H](O)[C@@H]1O`: the IC50 with HCT-116 came out at 12.4 µM; with MCF7, 15.1 µM; in the assay on HepG2, 11.8 µM; in the assay on A549, 14.2 µM; in the assay with MGC-803 it was 12.8 µM.
For `CC(=O)N[C@H]1[C@H](O[C@H]2CC[C@]3(C)[C@H]4CC=C5[C@@H]6CC(C)(C)CC[C@]6(C(=O)OCc6cn(-c7ccc(C(C)=O)cc7)nn6)CC[C@@]5(C)[C@]4(C)CC[C@H]3C2(C)C)O[C@H](CO[C@@H]2OC[C@H](O)[C@H](O)[C@@H]2O)[C@@H](O)[C@@H]1O`, in that order: 12.8 µM, 14.8 µM, 11.5 µM, 14 µM and 17.1 µM.
For `CC(=O)N[C@H]1[C@H](O[C@H]2CC[C@]3(C)[C@H]4CC=C5[C@@H]6CC(C)(C)CC[C@]6(C(=O)OCc6cn(-c7ccc(Cl)cc7)nn6)CC[C@@]5(C)[C@]4(C)CC[C@H]3C2(C)C)O[C@H](CO[C@@H]2OC[C@H](O)[C@H](O)[C@@H]2O)[C@@H](O)[C@@H]1O`, in that order: 37.9 µM, 67.1 µM, 28.4 µM, 38.7 µM and 24.9 µM.
For `CC(=O)N[C@H]1[C@H](O[C@H]2CC[C@]3(C)[C@H]4CC=C5[C@@H]6CC(C)(C)CC[C@]6(C(=O)OCc6cn(-c7ccccc7Br)nn6)CC[C@@]5(C)[C@]4(C)CC[C@H]3C2(C)C)O[C@H](CO[C@@H]2OC[C@H](O)[C@H](O)[C@@H]2O)[C@@H](O)[C@@H]1O`, in that order: 13.2 µM, 68.2 µM, 61.7 µM, 65.2 µM and 54.7 µM.
For `CCOc1ccc(-n2cc(COC(=O)[C@]34CCC(C)(C)C[C@H]3C3=CC[C@@H]5[C@@]6(C)CC[C@H](O[C@@H]7O[C@H](CO[C@@H]8OC[C@H](O)[C@H](O)[C@@H]8O)[C@@H](O)[C@H](O)[C@H]7NC(C)=O)C(C)(C)[C@@H]6CC[C@@]5(C)[C@]3(C)CC4)nn2)cc1`, the IC50 in the assay with HCT-116 stood at 16.6 µM; in the assay with MCF7, 24.5 µM; with HepG2 it was 13.6 µM; with A549, 19.7 µM; in the assay with MGC-803 it was 21.3 µM.
As to `CC(=O)N[C@H]1[C@H](O[C@H]2CC[C@]3(C)[C@H]4CC=C5[C@@H]6CC(C)(C)CC[C@]6(C(=O)OCc6cn(-c7ccc(Cl)cc7Cl)nn6)CC[C@@]5(C)[C@]4(C)CC[C@H]3C2(C)C)O[C@H](CO[C@@H]2OC[C@H](O)[C@H](O)[C@@H]2O)[C@@H](O)[C@@H]1O`, the IC50 with HCT-116 is 38.8 µM; in the assay with MCF7, 29.1 µM; in the assay with HepG2, 32.7 µM; with A549, 36 µM; with MGC-803, 31.3 µM.
For `CC(=O)N[C@H]1[C@H](O[C@H]2CC[C@]3(C)[C@H]4CC=C5[C@@H]6CC(C)(C)CC[C@]6(C(=O)OCc6cn(-c7ccccc7OC(F)(F)F)nn6)CC[C@@]5(C)[C@]4(C)CC[C@H]3C2(C)C)O[C@H](CO[C@@H]2OC[C@H](O)[C@H](O)[C@@H]2O)[C@@H](O)[C@@H]1O`, the IC50 in the assay with HCT-116 was found to be 37.9 µM; in the assay on MCF7, 32 µM; in the assay on HepG2 it was 31.6 µM; in the assay with A549, 15 µM; in the assay with MGC-803 it was 36.9 µM.
For `CC(=O)N[C@H]1[C@H](O[C@H]2CC[C@]3(C)[C@H]4CC=C5[C@@H]6CC(C)(C)CC[C@]6(C(=O)OCc6cn(-c7cccc(C)c7)nn6)CC[C@@]5(C)[C@]4(C)CC[C@H]3C2(C)C)O[C@H](CO[C@@H]2OC[C@H](O)[C@H](O)[C@@H]2O)[C@@H](O)[C@@H]1O`, the IC50 came to 7.1 µM in the assay with HCT-116; 20.2 µM with MCF7; 10.6 µM in the assay with HepG2; 14.5 µM in the assay on A549; 11 µM with MGC-803.
For `CC(=O)N[C@H]1[C@H](O[C@H]2CC[C@]3(C)[C@H]4CC=C5[C@@H]6CC(C)(C)CC[C@]6(C(=O)OCc6cn(-c7ccccc7F)nn6)CC[C@@]5(C)[C@]4(C)CC[C@H]3C2(C)C)O[C@H](CO[C@@H]2OC[C@H](O)[C@H](O)[C@@H]2O)[C@@H](O)[C@@H]1O`, in that order: 23.5 µM, 47.6 µM, 18.9 µM, 24.2 µM and 20.7 µM.
The matching figures for `COc1ccc(-n2cc(COC(=O)[C@]34CCC(C)(C)C[C@H]3C3=CC[C@@H]5[C@@]6(C)CC[C@H](O[C@@H]7O[C@H](CO[C@@H]8OC[C@H](O)[C@H](O)[C@@H]8O)[C@@H](O)[C@H](O)[C@H]7NC(C)=O)C(C)(C)[C@@H]6CC[C@@]5(C)[C@]3(C)CC4)nn2)cc1`: 20 µM, 19.7 µM, 12.2 µM, 20.7 µM and 19.7 µM.
The matching figures for `CC(=O)N[C@H]1[C@H](O[C@H]2CC[C@]3(C)[C@H]4CC=C5[C@@H]6CC(C)(C)CC[C@]6(C(=O)OCc6cn(-c7cccc(Cl)c7)nn6)CC[C@@]5(C)[C@]4(C)CC[C@H]3C2(C)C)O[C@H](CO[C@@H]2OC[C@H](O)[C@H](O)[C@@H]2O)[C@@H](O)[C@@H]1O`: 11.5 µM, 18.7 µM, 8.1 µM, 7.69 µM and 10.9 µM.
As for `CC(=O)N[C@H]1[C@H](O[C@H]2CC[C@]3(C)[C@H]4CC=C5[C@@H]6CC(C)(C)CC[C@]6(C(=O)OCc6cn(-c7ccc(C)cc7C)nn6)CC[C@@]5(C)[C@]4(C)CC[C@H]3C2(C)C)O[C@H](CO[C@@H]2OC[C@H](O)[C@H](O)[C@@H]2O)[C@@H](O)[C@@H]1O`, the IC50 in the assay with HCT-116 was determined as 47.6 µM; with MCF7 it was 44.6 µM; in the assay on HepG2, 40.4 µM; in the assay on A549, 42.3 µM; with MGC-803, 46.9 µM.
For `CC(=O)N[C@H]1[C@H](O[C@H]2CC[C@]3(C)[C@H]4CC=C5[C@@H]6CC(C)(C)CC[C@]6(C(=O)OCc6cn(-c7ccccc7C)nn6)CC[C@@]5(C)[C@]4(C)CC[C@H]3C2(C)C)O[C@H](CO[C@@H]2OC[C@H](O)[C@H](O)[C@@H]2O)[C@@H](O)[C@@H]1O`, in that order: 10.9 µM, 86.9 µM, 51.3 µM, 63.7 µM and 58.1 µM.
Consider `COC(=O)c1ccccc1-n1cc(COC(=O)[C@]23CCC(C)(C)C[C@H]2C2=CC[C@@H]4[C@@]5(C)CC[C@H](O[C@@H]6O[C@H](CO[C@@H]7OC[C@H](O)[C@H](O)[C@@H]7O)[C@@H](O)[C@H](O)[C@H]6NC(C)=O)C(C)(C)[C@@H]5CC[C@@]4(C)[C@]2(C)CC3)nn1`, for which the IC50 in the assay on HCT-116 is 38.2 µM; in the assay on MCF7, 86.8 µM; with HepG2, 68.9 µM; with A549, 66.7 µM; in the assay with MGC-803, 76.3 µM.
For `CC(=O)N[C@H]1[C@H](O[C@H]2CC[C@]3(C)[C@H]4CC=C5[C@@H]6CC(C)(C)CC[C@]6(C(=O)OCc6cn(-c7cccc(C#N)c7)nn6)CC[C@@]5(C)[C@]4(C)CC[C@H]3C2(C)C)O[C@H](CO[C@@H]2OC[C@H](O)[C@H](O)[C@@H]2O)[C@@H](O)[C@@H]1O`, the IC50 in the assay with HCT-116 came to 27 µM; with MCF7, 27.7 µM; in the assay on HepG2, 27.7 µM; in the assay on A549, 29.2 µM; in the assay on MGC-803 it was 28.8 µM.
For `COc1cccc(-n2cc(COC(=O)[C@]34CCC(C)(C)C[C@H]3C3=CC[C@@H]5[C@@]6(C)CC[C@H](O[C@@H]7O[C@H](CO[C@@H]8OC[C@H](O)[C@H](O)[C@@H]8O)[C@@H](O)[C@H](O)[C@H]7NC(C)=O)C(C)(C)[C@@H]6CC[C@@]5(C)[C@]3(C)CC4)nn2)c1`, the IC50 in the assay on HCT-116 was 12.4 µM; in the assay on MCF7, 20.9 µM; with HepG2, 6.47 µM; in the assay on A549 it was 13.3 µM; with MGC-803, 11.6 µM.
For `O=c1[nH]cc(F)c(=O)[nH]1` [FLUOROURACIL], the concentration for half-maximal inhibition (IC50) in the assay with HCT-116 was determined as 38.3 µM; in the assay with HepG2, 48 µM; with A549 it was 71.1 µM; in the assay with MGC-803, 31 µM.
For `CC(=O)N[C@H]1[C@H](O[C@H]2CC[C@]3(C)[C@H]4CC=C5[C@@H]6CC(C)(C)CC[C@]6(C(=O)OCc6cn(-c7cccc(F)c7)nn6)CC[C@@]5(C)[C@]4(C)CC[C@H]3C2(C)C)O[C@H](CO[C@@H]2OC[C@H](O)[C@H](O)[C@@H]2O)[C@@H](O)[C@@H]1O`, the IC50 in the assay with HCT-116 was found to be 11.1 µM; in the assay with MCF7, 34.3 µM; in the assay on HepG2 it was 18.2 µM; in the assay on A549, 19.6 µM; with MGC-803 it was 18.4 µM.
The matching figures for `COc1ccccc1-n1cc(COC(=O)[C@]23CCC(C)(C)C[C@H]2C2=CC[C@@H]4[C@@]5(C)CC[C@H](O[C@@H]6O[C@H](CO[C@@H]7OC[C@H](O)[C@H](O)[C@@H]7O)[C@@H](O)[C@H](O)[C@H]6NC(C)=O)C(C)(C)[C@@H]5CC[C@@]4(C)[C@]2(C)CC3)nn1`: 55.8 µM, 53.1 µM, 49.7 µM, 59.9 µM and 53 µM.
For `CC(=O)N[C@H]1[C@H](O[C@H]2CC[C@]3(C)[C@H]4CC=C5[C@@H]6CC(C)(C)CC[C@]6(C(=O)OCc6cn(-c7cccc([N+](=O)[O-])c7)nn6)CC[C@@]5(C)[C@]4(C)CC[C@H]3C2(C)C)O[C@H](CO[C@@H]2OC[C@H](O)[C@H](O)[C@@H]2O)[C@@H](O)[C@@H]1O`, the IC50 turned out to be 27.1 µM in the assay with HCT-116; 25.8 µM in the assay on MCF7; 33.3 µM in the assay on HepG2; 37.2 µM in the assay with A549; 37.8 µM in the assay with MGC-803.
